Source: patent US20250122253A1, “REGULATING MICROTUBULE DYNAMICS AS A THERAPEUTIC TARGET FOR NERVE REPAIR” (City University of Hong Kong, priority 2023, published 2025)

Assays:
[1] = tested on: spinal neurons; settings: background statement; paclitaxel in rats; cited from earlier work
[2] = tested on: tubulin; settings: epothilone B: cultured rat cortical neurons; cited from earlier work
[3] = chronic exposure, high doses in animals; cited from earlier work
[4] = tested on: acetylated tubulin; experiment: Western blot of acetylated tubulin/total tubulin in sciatic nerve segments 0-6 mm distal to the crush site; assay type: in vivo, mice; settings: AAV2/9-Fmn2-shRNA mice; 3 days after injury
Experimental: (§1) Ipsilateral L4/5 DRG neurons were harvested at various time points following sciatic nerve injury as indicated. Sciatic nerves were harvested 3 days after crush injury and segmented into 0-6 mm distal to the crush site. Each protein sample was pooled from 3 mice. DRG neurons and segmented sciatic nerves were mechanically dissociated with protein lysis buffer, and subjected to measurement of protein concentration using protein BCA assay (Pierce). Protein lysate (30 μg) was separated on 4-12% NuPAGE Tris-Glycine precast gel (Invitrogen). Protein was then transferred onto a PVDF membrane (Bio-Rad) and blocked with 5% non-fat milk (Bio-Rad) in TBS-T. The membrane was incubated with anti-FMN2 (1:500; ProteinTech), anti-phosphorylated HDAC5 (1:500, ThermoFisher), anti-HDAC5 (1:500, Novus Biologicals), anti-acetylated tubulin (1:10,000; Sigma-Aldrich), anti-NeuN (1:500; Millipore), anti-SOX10 (1:500; Abcam), anti-IBA-1 (1:1,000; Wako), anti-GFP (1:1,000; Cell Signaling), and anti-GAPDH antibodies (1:2,000; ProteinTech) as loading controls. The membrane was incubated with secondary antibody conjugated with horseradish peroxidase (1:2,000; Thermo-Fisher). Signals were detected using West Femto Maximum Sensitivity Substrate Kit (Thermo Scientific). […] Band intensities were measured using Image Lab software (Bio-Rad). […]

[5] = tested on: regenerating sensory axons of the injured sciatic nerve; experiment: Sciatic nerve pinch test after sciatic nerve crush injury; assay type: in vivo, mice; settings: AAV2/9-Fmn2-shRNA mice; 3 days after sciatic nerve injury; LMK-235 20 mg/kg intraperitoneally 3 consecutive days
Experimental: Sciatic nerve crush or transection injury was performed in anesthetized adult male C57BL/6 or Fmn2^−/− mice (8-12 weeks old) as previously described. Briefly, the left sciatic nerve was exposed at mid-thigh level. For crush injury, the exposed nerve was crushed with smooth forceps (Dumont #5/45 Forceps, Fine Science Tools) at the sciatic notch for 15 seconds. For sciatic nerve transection, an epineural suture was first made at the level of external rotator muscle, just distal to the sciatic notch. The exposed nerve was then transected using a pair of ophthalmic microscissors just distal to the suture. After injury, the overlying muscle and skin were sutured using a 5-0 suture (Ethilon), and the mice were allowed to recover on a heated pad, and returned to their home cages after recovery. The surgeon was blinded to the genotypes and treatments.
For in vivo gene silencing of Fmn2 and/or Hdac5 in DRGs, AAV2/9-Fmn2-shRNA and AAV2/9-Hdac5-shRNA at a titer of 5×10^12 vg/mL (OBIO Technology) were injected into the sciatic nerve directly through a glass micropipette using a microinjector (Harvard Apparatus) two weeks before sciatic nerve crush injury. The mice were then subjected to sciatic nerve crush injury and sciatic nerve pinch test (FIG. 4) and animal behavioural assessment (FIG. 15). The expression of shRNAs was under the control of the U6 promoter, and the expression of the reporter gene eGFP was under the control of the CAG promoter. AAV2/9-scr-shRNA (Packgene) was used as a negative control (see FIG. 22 for the shRNA sequences). On a separate batch of animals, the knockdown efficiency in DRGs was assessed by Western blot analysis in AAV2-Fmn2-shRNA and AAV2-Hdac5-shRNA mice two weeks after the AAV injection (FIGS. S8B and S9). […]
Sciatic nerve pinch test was performed in the ipsilateral side 3 days after sciatic nerve crush injury. […] The distance (in mm) representing the length of axonal regrowth was recorded from the crushed site to the most distal point of sciatic nerve whereas initial withdrawal reflex was observed after pinching. […]

[6] = tested on: pHDAC5; experiment: Western blot of pHDAC5 in sciatic nerve segments 0-6 mm distal to the crush site; assay type: in vivo, mice; settings: AAV2/9-Fmn2-shRNA mice; 3 days after injury
Experimental: as §1

[7] = tested on: damaged axons; settings: background statement; cited from earlier work

C/C(=C\c1csc(C)n1)[C@@H]1C[C@@H]2O[C@]2(C)CCC[C@H](C)[C@H](O)[C@@H](C)C(=O)C(C)(C)[C@@H](O)CC(=O)O1 [Epothilone B]
axon regeneration after spinal cord injury [1]: promoted in vivo axon regeneration | tubulin polymerization at growing tips / growth cones [2]: induced rapid tubulin polymerization | peripheral neuropathy [3]: cause chemotherapy-induced peripheral neuropathy

Cc1cc(C)cc(C(=O)NOCCCCCC(=O)NO)c1 [LMK-235]
acetylated tubulin expression in sciatic nerves of AAV2/9-Fmn2-shRNA mice [4]: increased acetylated tubulin expression | effect on the axon regrowth-promoting effect in AAV2/9-Fmn2-shRNA mice [5]: completely eliminated the axon regrowth-promoting effect | reduction of pHDAC5 protein expression in AAV2/9-Fmn2-shRNA mice [6]: 70%

CC(=O)O[C@H]1C(=O)[C@@]2(C)[C@H]([C@H](OC(=O)c3ccccc3)[C@]3(O)C[C@H](OC(=O)[C@H](O)[C@@H](NC(=O)c4ccccc4)c4ccccc4)C(C)=C1C3(C)C)[C@]1(OC(C)=O)CO[C@@H]1C[C@@H]2O [paclitaxel]
axon regeneration after spinal cord injury [1]: facilitated in vivo axon regeneration | tubulin polymerization at growing tips / growth cones [2]: induced active tubulin polymerization

O=C(CCCCCN1C(=O)c2cccc3cccc(c23)C1=O)NO [scriptaid]
axonal regrowth after PNI [7]: markedly stalled axonal regrowth
